Details: Liquid, Vibrating tube method

CC(C)(C)O [2-methylpropan-2-ol]
Details	mass density [kg/m3]
333.15 K, 50000 kPa	788.7
333.15 K, 52050 kPa	790.2
333.15 K, 55010 kPa	792.3
333.15 K, 57996 kPa	794.3
333.15 K, 60003 kPa	795.6
338.15 K, 100 kPa	737.1
338.15 K, 309 kPa	737.3
338.15 K, 505 kPa	737.6
338.15 K, 898 kPa	738.1
338.15 K, 1003 kPa	738.2
338.15 K, 2001 kPa	739.5
338.15 K, 3005 kPa	740.8
338.15 K, 5003 kPa	743.2
338.15 K, 7014 kPa	745.6
338.15 K, 9004 kPa	747.9
338.15 K, 10002 kPa	749
338.15 K, 11998 kPa	751.2
338.15 K, 14999 kPa	754.4
338.15 K, 17997 kPa	757.5
338.15 K, 20007 kPa	759.4
338.15 K, 21999 kPa	761.4
338.15 K, 25000 kPa	764.2
338.15 K, 27994 kPa	766.9
338.15 K, 30011 kPa	768.6
338.15 K, 32005 kPa	770.4
338.15 K, 32998 kPa	771.2
338.15 K, 33033 kPa	771.2
338.15 K, 34007 kPa	772
338.15 K, 35000 kPa	772.9
338.15 K, 38031 kPa	775.3
338.15 K, 40024 kPa	776.9
338.15 K, 41998 kPa	778.5
338.15 K, 43195 kPa	779.4
338.15 K, 44574 kPa	780.4
338.15 K, 46152 kPa	781.6
338.15 K, 48333 kPa	783.3
338.15 K, 50050 kPa	784.5
338.15 K, 52462 kPa	786.3
338.15 K, 56690 kPa	789.2
338.15 K, 60003 kPa	791.5
343.15 K, 99 kPa	731
343.15 K, 305 kPa	731.3
343.15 K, 503 kPa	731.6
343.15 K, 901 kPa	732.1
343.15 K, 1002 kPa	732.2
343.15 K, 2000 kPa	733.6
343.15 K, 3001 kPa	734.9
343.15 K, 5005 kPa	737.5
343.15 K, 7004 kPa	740
343.15 K, 9033 kPa	742.4
343.15 K, 10020 kPa	743.6
343.15 K, 12001 kPa	745.8
343.15 K, 15002 kPa	749.1
343.15 K, 18001 kPa	752.3
343.15 K, 20018 kPa	754.4
343.15 K, 21994 kPa	756.4
343.15 K, 25026 kPa	759.3
343.15 K, 27993 kPa	762.1
343.15 K, 30004 kPa	763.9
343.15 K, 32000 kPa	765.7
343.15 K, 32963 kPa	766.6
343.15 K, 33001 kPa	766.6
343.15 K, 34002 kPa	767.5
343.15 K, 35003 kPa	768.3
343.15 K, 38027 kPa	770.8
343.15 K, 39998 kPa	772.5
343.15 K, 42000 kPa	774.1
348.15 K, 98 kPa	725.1
348.15 K, 295 kPa	725.3
348.15 K, 498 kPa	725.7
348.15 K, 898 kPa	726.2
348.15 K, 1004 kPa	726.4
348.15 K, 2006 kPa	727.8
348.15 K, 3001 kPa	729.2
348.15 K, 5005 kPa	731.9
348.15 K, 6999 kPa	734.5
348.15 K, 9012 kPa	737
348.15 K, 10014 kPa	738.2
348.15 K, 12003 kPa	740.6
348.15 K, 14999 kPa	744
348.15 K, 17999 kPa	747.3
348.15 K, 20000 kPa	749.4
348.15 K, 21998 kPa	751.5
348.15 K, 24996 kPa	754.4
348.15 K, 27995 kPa	757.3
348.15 K, 30045 kPa	759.3
348.15 K, 32000 kPa	761
348.15 K, 32878 kPa	761.8
348.15 K, 33012 kPa	761.9
348.15 K, 34000 kPa	762.8
348.15 K, 35001 kPa	763.7
348.15 K, 38001 kPa	766.3
348.15 K, 39999 kPa	768
348.15 K, 41997 kPa	769.6
348.15 K, 44999 kPa	772
353.15 K, 99 kPa	719
353.15 K, 300 kPa	719.3
353.15 K, 501 kPa	719.6
353.15 K, 897 kPa	720.2
353.15 K, 1000 kPa	720.3
353.15 K, 2000 kPa	721.8
353.15 K, 2999 kPa	723.2
353.15 K, 4999 kPa	726.1
353.15 K, 6999 kPa	728.8
353.15 K, 8998 kPa	731.4
353.15 K, 10003 kPa	732.6
353.15 K, 11997 kPa	735.1
353.15 K, 15001 kPa	738.7
353.15 K, 17999 kPa	742.1
353.15 K, 20000 kPa	744.2
353.15 K, 21999 kPa	746.4
353.15 K, 24997 kPa	749.4
353.15 K, 27999 kPa	752.5
353.15 K, 30004 kPa	754.4
353.15 K, 32003 kPa	756.3
353.15 K, 32985 kPa	757.1
353.15 K, 33002 kPa	757.2
353.15 K, 34000 kPa	758.1
353.15 K, 35004 kPa	759
353.15 K, 38477 kPa	762.2
353.15 K, 40002 kPa	763.4
353.15 K, 42035 kPa	765.1
353.15 K, 45022 kPa	767.6
353.15 K, 48092 kPa	770.1
353.15 K, 49989 kPa	771.5
358.15 K, 103 kPa	712.8
358.15 K, 293 kPa	713.1
358.15 K, 498 kPa	713.4
358.15 K, 899 kPa	714
358.15 K, 1003 kPa	714.2
358.15 K, 2008 kPa	715.7
358.15 K, 3003 kPa	717.3
358.15 K, 5003 kPa	720.2
358.15 K, 7003 kPa	723
358.15 K, 9001 kPa	725.8
358.15 K, 9998 kPa	727.1
358.15 K, 12010 kPa	729.7
358.15 K, 14999 kPa	733.3
358.15 K, 18040 kPa	736.9
358.15 K, 19997 kPa	739.1
358.15 K, 21995 kPa	741.3
358.15 K, 25017 kPa	744.5
358.15 K, 27994 kPa	747.6
358.15 K, 29991 kPa	749.6
358.15 K, 32001 kPa	751.5
358.15 K, 32997 kPa	752.5
358.15 K, 33015 kPa	752.5
358.15 K, 34056 kPa	753.5
358.15 K, 35075 kPa	754.4
358.15 K, 37998 kPa	757
358.15 K, 40001 kPa	758.8
358.15 K, 42007 kPa	760.6
358.15 K, 45002 kPa	763.1
358.15 K, 47995 kPa	765.5
358.15 K, 50001 kPa	767
363.15 K, 299 kPa	706.4
363.15 K, 502 kPa	706.8
363.15 K, 901 kPa	707.4
363.15 K, 1002 kPa	707.6
363.15 K, 2001 kPa	709.2
363.15 K, 3005 kPa	710.8
363.15 K, 5002 kPa	713.9
363.15 K, 7023 kPa	716.9
363.15 K, 9001 kPa	719.7
363.15 K, 10009 kPa	721.1
363.15 K, 12038 kPa	723.8
363.15 K, 14998 kPa	727.6
363.15 K, 18000 kPa	731.3
363.15 K, 20033 kPa	733.7
363.15 K, 22005 kPa	735.9
363.15 K, 25000 kPa	739.2
363.15 K, 28009 kPa	742.4
363.15 K, 30011 kPa	744.4
363.15 K, 32033 kPa	746.5
363.15 K, 32982 kPa	747.4
363.15 K, 33012 kPa	747.4
363.15 K, 34035 kPa	748.4
363.15 K, 34999 kPa	749.3
363.15 K, 37998 kPa	752.1
363.15 K, 39147 kPa	753.2
363.15 K, 40009 kPa	753.9
363.15 K, 41998 kPa	755.7
363.15 K, 44999 kPa	758.4
363.15 K, 47996 kPa	760.9
363.15 K, 49998 kPa	762.5
363.15 K, 52002 kPa	764.2
363.15 K, 55003 kPa	766.6
363.15 K, 57998 kPa	768.9
363.15 K, 59999 kPa	770.4
363.16 K, 38458 kPa	752.5

Source: the NIST ThermoML archive (doi:10.1021/acs.jced.5b00934)
